One test relates to Amaranthus retroflexus. As to the kind of experiment: In planta growth experiment, A. retroflexus. The test is classed as in vivo. The following applies: shoots sprayed, 3 mM. From the text:
Seeds of Amaranthus retroflexus L. (Herbiseed, Twyford, UK) and Brassica napus L. cv. Mozart (Norddeutsche Pflanzenzucht Hans-Georg Lembke KG, Holtsee, Germany) were sown in vermiculite for germination. When cotyledons were fully expanded, seedlings were transplanted into plastic pots with a volume of 0.230 L filled with a substrate containing 50% bottom ash (0–4 mm), 30% peat and 20% pumice gravel (0–4 mm). Plants were watered every other day with 0.03% Hakaphos® Grün solution (Compo Expert GmbH, Münster, Germany) by sub-irrigation. Plants were grown in a climate chamber at 22 °C/20 °C day/night temperature and a day/night length of 16 h/8 h. Relative humidity was adjusted to 70% and light intensity was 320 μmol m^−2 s^−1 PAR (Photosynthetically Active Radiation) at plant level.
When seedlings reached the two-leaf growth stage, plant shoots were sprayed from the top with treatment solutions using spray bottles with a spraying angle of 35° (10 ml, neoLab Migge Laborbedarf-Vertriebs GmbH, Heidelberg, Germany). Treatment solutions were applied from a height of 8.5 cm above the pots. Each pot was sprayed once with a solution volume of 0.135 ml. Treatment solutions contained 2.4% (v/v) DMSO (dimethylsulfoxide, Duchefa Biochemie, Haarlem, the Netherlands), 0.1% (v/v) Tween® and the respective compound at a concentration of 3 mM. The control treatment contained 2.4% (v/v) DMSO, and 0.1% (v/v) Tween20. Further details are given in the Supplementary Information. […]
Experimental design and assessments of in planta experiments
We tested eleven compounds in a first experiment. In a follow-up experiment we tested selected […]
chalcone. Each treatment was repeated 12 times, except for oilseed rape in the second experiment (n=10). Pots were arranged in the growth chamber according to a fully randomized design. Initial growth of the second leaf of A. retroflexus plants was monitored by aquiring images of each plant from above from day zero to day two after treatment. Images were taken […]
from a fixed distance at 90° view angle using the camera Canon EOS 70D equipped with a Canon EF 14 mm/2.8 L II USM lens. Leaf area of single leaves was measured using the ImageJ software31, by drawing the leaf contours using a drawing tablet (Cintiq 22HD, Wacom Europe GmbH, Krefeld, Germany). Conversion of pixel to cm was achieved by using a target of known size inside the image. Six days after the treatment, half of the plants were harvested. Leaf area was assessed using a leaf area meter (LI3100C Area Meter, LI-Cor, Lincoln, Nebraska, USA) and samples were oven-dried at 65°C for seven days to obtain dry weight . Thirteen days after the treatment, this procedure was repeated with the second half of plants.
Chlorophyll fluorescence measurements […]
6 mm leaf discs were cut out of the second leaf and immediately placed into 96-well-plates filled with 300 µL 0.125 % Hoagland’s solution with 1 mM MES-KOH (MES-monohydrate, Merck, Darmstadt, Germany) buffered to a pH of 6.5. The treatment solution contained 1.6 % (v/v) DMSO, 0.1 % (v/v) Tween® 20 and 2',3',4',3,4-Pentahydroxychalcone at a concentration of 2 mM. The control treatment contained 1.6 % (v/v) DMSO, 0.1 % (v/v) Tween® 20. Each leaf disc was treated with 1.5 µL solution placed on top of the leaf discs. Plates were sealed with Parafilm and placed into a climate cabinet with 12h/12h day/night-length and a temperature of 22°C at a light intensity of 130 µmol m-2 s-1. 96 hours after treatment, chlorophyll fluorescence measurements were performed on leaf discs using an Imaging PAM M-Series fluorescence camera (Heinz Walz GmbH, Effeltrich, Germany). Leaf discs were dark adapted for 30 minutes, minimum and maximum chlorophyll fluorescence were obtained and leaf discs were illuminated for 30 minutes

The subject of test [1] is Corynebacterium glutamicum ATCC13032. Put plainly: Bacterial growth in microscale cultivation, C. glutamicum. The test is classed as cell-based. The settings on record: for activity at 4 µM / activity at 40 µM / activity at 120 µM / activity at 400 µM / activity at 55 µM / activity at 110 µM / activity at 550 µM: Corynebacterium glutamicum; for activity at 4 µM / activity at 40 µM / activity at 120 µM / activity at 400 µM / Lag Phase / activity at 55 µM / activity at 110 µM / activity at 550 µM: relative to control. Here is the method:
The following bacteria were cultivated in the presence of trans-chalcone derived inhibitors: Corynebacterium glutamicum ATCC13032[43], Escherichia coli K-12 MG1655[44], Pseudomonas putida KT2440[45], and Bacillus subtilis 168[46]. The growth of these bacteria was monitored in flower-well plates shaken at 1200 rpm as backscatter at 620 nm (gain 20) using a BioLector® microscale cultivation system (m2p labs, Baesweiler, Germany). For further experimental details please refer to the Supplementary Information.
medium or the appropriate minimal medium and shaken at 140 rpm overnight. For inoculation of
the main culture, cells equivalent to an optical density at 600 nm of 0.5 (C. glutamicum, E. coli,
and P. putida) or 0.25 (B. subtilis) in 800 µL medium were washed and resuspended in fresh
media. Inhibitor substances were dissolved in DMSO and added to the media to a final
Since the least polar trans-chalcone and 2’-hydroxychalcone precipitated in the growth media at
the highest concentrations, the maximal concentration of these compounds was reduced to 400
µM and 100 µM, respectively. The final backscatter at 620 nm, the growth rate (h-1), and the
duration of the lag phase of all cultures were determined in a BioLector microscale cultivation
system in comparison to negative controls supplemented with the solvent DMSO. A longer lag

[2] abbreviates: ATCC13032, complex medium, 4 µM, read-out: Final Backscatter.
The mark [3] stands for this setting: ATCC13032, complex medium, 4 µM, read-out: Growth rate.
Where [4] appears, read: ATCC13032, complex medium, 40 µM, read-out: Final Backscatter.
Where [5] appears, read: ATCC13032, complex medium, 40 µM, read-out: Growth rate.
[6] abbreviates: ATCC13032, complex medium, 400 µM, read-out: Final Backscatter.
[7] abbreviates: ATCC13032, complex medium, 400 µM, read-out: Growth rate.
[8] abbreviates: ATCC13032, minimal medium, 4 µM, read-out: Final Backscatter.
Setting [9] is: ATCC13032, minimal medium, 4 µM, read-out: Growth rate.
Where [10] appears, read: ATCC13032, minimal medium, 40 µM, read-out: Final Backscatter.
Where [11] appears, read: ATCC13032, minimal medium, 40 µM, read-out: Growth rate.
Where [12] appears, read: ATCC13032, minimal medium, 400 µM, read-out: Final Backscatter.
Setting [13] is: ATCC13032, minimal medium, 400 µM, read-out: Growth rate.

Structures are written as SMILES. Like-named read-outs stand apart in the source and are kept apart here.

Consider `O=C(/C=C/c1ccc(O)cc1)c1ccccc1O` [Compound 3, 2′,4-Dihydroxychalcone], for which the Influence on plants result in the test with Amaranthus retroflexus is “No”. The activity at 4 µM in test [1] (setting [2]) turned out to be 100%; in test [1] (setting [3]), 101%; in test [1] (setting [8]), 102%; in test [1] (setting [9]), 99.6%. The activity at 40 µM in test [1] (setting [4]) came out at 103%; in test [1] (setting [5]), 99.1%; in test [1] (setting [10]) it was 103%; in test [1] (setting [11]), 99.5%. The activity at 120 µM amounted to 111% in test [1] (ATCC13032, complex medium, 120 µM, read-out: Final Backscatter); 107% in test [1] (ATCC13032, complex medium, 120 µM, read-out: Growth rate); 102% in test [1] (ATCC13032, minimal medium, 120 µM, read-out: Final Backscatter); 96.7% in test [1] (ATCC13032, minimal medium, 120 µM, read-out: Growth rate). Besides, the activity at 400 µM in test [1] (setting [6]) turned out to be 112%; in test [1] (setting [7]), 93.9%; in test [1] (setting [12]), 106%; in test [1] (setting [13]), 81.2%. Moreover, the “Lag Phase” value in test [1] (complex medium, 4 µM) was 93,2%; in test [1] (complex medium, 40 µM), 93,8%; in test [1] (complex medium, 120 µM), 100,5%; in test [1] (complex medium, 400 µM), 118,1%; in test [1] (minimal medium, 4 µM) it was 100,0%; in test [1] (minimal medium, 40 µM), 97,3%. Also, the “Lag Phase” value in test [1] (minimal medium, 120 µM) is 107,7%; in test [1] (minimal medium, 400 µM), 139,3%.

Turning to `O=C(/C=C/c1ccccc1)c1ccc(O)cc1O` [Compound 4, 2′,4′-Dihydroxychalcone], the Influence on plants result in the test with Amaranthus retroflexus is “No”. The activity at 4 µM was 101% in test [1] (setting [2]), 113% in test [1] (setting [3]), 102% in test [1] (setting [8]) and 98.9% in test [1] (setting [9]). Besides, the activity at 40 µM in test [1] (setting [4]) was 105%; in test [1] (setting [5]) it was 115%; in test [1] (setting [10]) it was 100%; in test [1] (setting [11]), 95.5%. Besides, the activity at 400 µM came to 107% in test [1] (setting [6]), 91.6% in test [1] (setting [7]), 110% in test [1] (setting [12]) and 65.2% in test [1] (setting [13]). Moreover, the “Lag Phase” value in test [1] (complex medium, 4 µM) was 97,4%; in test [1] (complex medium, 40 µM), 96,2%; in test [1] (complex medium, 400 µM), 116,6%; in test [1] (minimal medium, 4 µM) it was 98,7%; in test [1] (minimal medium, 40 µM), 100,0%; in test [1] (minimal medium, 400 µM), 169,9%.

Take `O=C(/C=C/c1ccccc1)c1cc(O)ccc1O` [Compound 5, 2′,5′-Dihydroxychalcone]: the Influence on plants entry with Amaranthus retroflexus was “No”. For the same compound, in test [1] (550 μM, minimal media), the growth entry is “abolished growth”. Also, the activity at 55 µM in test [1] (ATCC13032, complex medium, 55 µM, read-out: Final Backscatter) was found to be 106%; in test [1] (ATCC13032, complex medium, 55 µM, read-out: Growth rate) it was 107%; in test [1] (ATCC13032, minimal medium, 55 µM, read-out: Final Backscatter), 99.7%; in test [1] (ATCC13032, minimal medium, 55 µM, read-out: Growth rate), 86.9%. Moreover, the activity at 110 µM in test [1] (ATCC13032, complex medium, 110 µM, read-out: Final Backscatter) is 103%; in test [1] (ATCC13032, complex medium, 110 µM, read-out: Growth rate), 110%; in test [1] (ATCC13032, minimal medium, 110 µM, read-out: Final Backscatter), 101%; in test [1] (ATCC13032, minimal medium, 110 µM, read-out: Growth rate), 79.5%. The activity at 550 µM in test [1] (ATCC13032, complex medium, 550 µM, read-out: Final Backscatter) amounted to 118%; in test [1] (ATCC13032, complex medium, 550 µM, read-out: Growth rate) it was 79%; in test [1] (ATCC13032, minimal medium, 550 µM, read-out: Final Backscatter) it was 18.8%. In addition, the “Influence on bacterial growth” value in test [1] (Minimal medium, highest concentration tested (10× IC50) if not stated otherwise) is recorded as “μ↓ (≥IC50), no growth (10× IC50)”. Further, the “Lag Phase” value is 96,2% in test [1] (complex medium, 55 µM); 98,4% in test [1] (complex medium, 110 µM); 120,7% in test [1] (complex medium, 550 µM); 114,0% in test [1] (minimal medium, 55 µM); 133,1% in test [1] (minimal medium, 110 µM).

As to `O=C(/C=C/c1ccc(O)cc1)c1ccc(O)cc1O` [Compound 6, 2′,4′,4-Trihydroxychalcone], in the test on Amaranthus retroflexus, the Influence on plants entry is “No”. For the same compound, the activity at 4 µM came to 99.8% in test [1] (setting [2]), 99.5% in test [1] (setting [3]), 100% in test [1] (setting [8]) and 101% in test [1] (setting [9]). Further, the activity at 40 µM in test [1] (setting [4]) was 98.2%; in test [1] (setting [5]), 101%; in test [1] (setting [10]), 101%; in test [1] (setting [11]) it was 97.7%. For the same compound, the activity at 400 µM in test [1] (setting [6]) was found to be 97.7%; in test [1] (setting [7]), 79.8%; in test [1] (setting [12]), 101%; in test [1] (setting [13]), 80.5%. Moreover, the “Lag Phase” value in test [1] (complex medium, 4 µM) is given as 99,3%; in test [1] (complex medium, 40 µM), 101,3%; in test [1] (complex medium, 400 µM), 105,3%; in test [1] (minimal medium, 4 µM), 98,5%; in test [1] (minimal medium, 40 µM), 101,5%; in test [1] (minimal medium, 400 µM) it was 127,6%.

(Values after publication PMC4893628, “Chalcone-based Selective Inhibitors of a C4 Plant Key Enzyme as Novel Potential Herbicides” (Scientific Reports, 2016).)
